Measurements reported in PubChem BioAssay (NCI).
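A five-concentration, 48-hour dose response in 96-well plates underlies each endpoint, interpolated linearly between surrounding concentrations. Definition used: TGI = concentration required for complete inhibition of growth.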

What was measured:
Test in all cases: NCI anticancer screen, dose series, 48 h
[1] = tested on: 786-0 renal
[2] = tested on: A498 renal
[3] = tested on: A549 NSCLC
[4] = tested on: ACHN renal
[5] = tested on: BT-549 breast
[6] = tested on: CAKI-1 renal
[7] = tested on: COLO 205 colon
[8] = tested on: DU-145 prostate
[9] = tested on: EKVX NSCLC
[10] = tested on: HCC-2998 colon
[11] = tested on: HCT-116 colon
[12] = tested on: HCT-15 colon
[13] = tested on: HL-60(TB) leukemia
[14] = tested on: HOP-62 NSCLC
[15] = tested on: HT29 colon
[16] = tested on: IGROV1 ovarian
[17] = tested on: K-562 leukemia
[18] = tested on: KM12 colon
[19] = tested on: LOX IMVI melanoma
[20] = tested on: M14 melanoma
[21] = tested on: MALME-3M melanoma
[22] = tested on: MCF7 breast
[23] = tested on: MDA-MB-231 breast
[24] = tested on: MDA-MB-435
[25] = tested on: MDA-N
[26] = tested on: MOLT-4 leukemia
[27] = tested on: NCI-H226 lung
[28] = tested on: NCI-H23 lung
[29] = tested on: NCI-H522 lung
[30] = tested on: NCI/ADR-RES ovarian
[31] = tested on: OVCAR-3 ovarian
[32] = tested on: OVCAR-4 ovarian
[33] = tested on: OVCAR-5 ovarian
[34] = tested on: OVCAR-8 ovarian
[35] = tested on: PC-3 prostate
[36] = tested on: RPMI-8226 leukemia
[37] = tested on: RXF 393 renal
[38] = tested on: SF-268 CNS
[39] = tested on: SF-295 CNS
[40] = tested on: SK-MEL-2 melanoma
[41] = tested on: SK-MEL-28 melanoma
[42] = tested on: SK-MEL-5 melanoma
[43] = tested on: SK-OV-3 ovarian
[44] = tested on: SN12C renal
[45] = tested on: SNB-19 CNS
[46] = tested on: SR leukemia
[47] = tested on: SW-620 colon
[48] = tested on: T-47D breast
[49] = tested on: TK-10 renal
[50] = tested on: U251 CNS
[51] = tested on: UACC-257 melanoma
[52] = tested on: UACC-62 melanoma
[53] = tested on: UO-31 renal
[54] = tested on: CCRF-CEM leukemia
[55] = tested on: HS 578T breast
[56] = tested on: SF-539 CNS
[57] = tested on: SNB-75 CNS
[58] = tested on: HOP-92 NSCLC
[59] = tested on: NCI-H460 lung

COc1ccc(CCNC(=O)c2ccccc2C2c3ccc(OCc4ccccc4)cc3Oc3cc(OCc4ccccc4)ccc32)cc1OC
TGI [1]: > 100 µM | TGI [2]: > 100 µM | TGI [3]: > 100 µM | TGI [4]: > 100 µM | TGI [5]: > 100 µM | TGI [6]: > 100 µM | TGI [7]: > 100 µM | TGI [8]: > 100 µM | TGI [9]: > 100 µM | TGI [10]: > 100 µM | TGI [11]: > 100 µM | TGI [12]: > 100 µM | TGI [13]: > 100 µM | TGI [14]: > 100 µM | TGI [15]: > 100 µM | TGI [16]: > 100 µM | TGI [17]: > 100 µM | TGI [18]: > 100 µM | TGI [19]: > 100 µM | TGI [20]: > 100 µM | TGI [21]: > 100 µM | TGI [22]: > 100 µM | TGI [23]: > 100 µM | TGI [24]: > 100 µM | TGI [25]: > 100 µM | TGI [26]: > 100 µM | TGI [27]: > 100 µM | TGI [28]: > 100 µM | TGI [29]: > 100 µM | TGI [30]: > 100 µM | TGI [31]: > 100 µM | TGI [32]: > 100 µM | TGI [33]: > 100 µM | TGI [34]: > 100 µM | TGI [35]: > 100 µM | TGI [36]: > 100 µM | TGI [37]: > 100 µM | TGI [38]: > 100 µM | TGI [39]: > 100 µM | TGI [40]: > 100 µM | TGI [41]: > 100 µM | TGI [42]: > 100 µM | TGI [43]: > 100 µM | TGI [44]: > 100 µM | TGI [45]: > 100 µM | TGI [46]: > 100 µM | TGI [47]: > 100 µM | TGI [48]: > 100 µM | TGI [49]: > 100 µM | TGI [50]: > 100 µM | TGI [51]: > 100 µM | TGI [52]: > 100 µM | TGI [53]: > 100 µM

COC(=O)CN1C(=O)C2(C(=O)OC)OC1(c1ccc([N+](=O)[O-])cc1)C1C(=O)N(c3ccccc3)C(=O)C12 (stereo not given)
TGI [1]: > 100 µM | TGI [2]: > 100 µM | TGI [3]: > 100 µM | TGI [4]: > 100 µM | TGI [5]: > 100 µM | TGI [6]: > 100 µM | TGI [54]: > 100 µM | TGI [7]: > 100 µM | TGI [8]: > 100 µM | TGI [9]: > 100 µM | TGI [11]: > 100 µM | TGI [12]: > 100 µM | TGI [13]: > 100 µM | TGI [14]: > 100 µM | TGI [55]: > 100 µM | TGI [15]: > 100 µM | TGI [16]: > 100 µM | TGI [18]: > 100 µM | TGI [19]: > 100 µM | TGI [20]: > 100 µM | TGI [21]: > 100 µM | TGI [23]: > 100 µM | TGI [24]: > 100 µM | TGI [25]: > 100 µM | TGI [26]: > 100 µM | TGI [27]: > 100 µM | TGI [28]: > 100 µM | TGI [29]: > 100 µM | TGI [30]: > 100 µM | TGI [32]: > 100 µM | TGI [33]: > 100 µM | TGI [34]: > 100 µM | TGI [35]: > 100 µM | TGI [37]: > 100 µM | TGI [38]: > 100 µM | TGI [39]: > 100 µM | TGI [56]: > 100 µM | TGI [40]: > 100 µM | TGI [41]: > 100 µM | TGI [42]: > 100 µM | TGI [43]: > 100 µM | TGI [44]: > 100 µM | TGI [45]: > 100 µM | TGI [57]: > 100 µM | TGI [47]: > 100 µM | TGI [48]: > 100 µM | TGI [49]: > 100 µM | TGI [50]: > 100 µM | TGI [51]: > 100 µM | TGI [52]: > 100 µM | TGI [53]: > 100 µM

CCOC(=O)NN(C(=O)OCC)C(=C(C1=CCCCC1)N1CCOCC1)N(NC(=O)OCC)C(=O)OCC
TGI [1]: > 100 µM | TGI [2]: > 100 µM | TGI [3]: > 100 µM | TGI [4]: > 100 µM | TGI [5]: > 100 µM | TGI [6]: > 100 µM | TGI [7]: > 100 µM | TGI [8]: > 100 µM | TGI [9]: > 100 µM | TGI [10]: > 100 µM | TGI [12]: > 100 µM | TGI [13]: > 100 µM | TGI [14]: > 100 µM | TGI [58]: > 100 µM | TGI [15]: > 100 µM | TGI [16]: > 100 µM | TGI [17]: > 100 µM | TGI [18]: > 100 µM | TGI [19]: > 100 µM | TGI [20]: > 100 µM | TGI [21]: > 100 µM | TGI [22]: > 100 µM | TGI [23]: > 100 µM | TGI [24]: > 100 µM | TGI [25]: > 100 µM | TGI [26]: > 100 µM | TGI [27]: > 100 µM | TGI [28]: > 100 µM | TGI [59]: > 100 µM | TGI [30]: > 100 µM | TGI [31]: > 100 µM | TGI [33]: > 100 µM | TGI [34]: > 100 µM | TGI [35]: > 100 µM | TGI [36]: > 100 µM | TGI [37]: > 100 µM | TGI [38]: > 100 µM | TGI [39]: > 100 µM | TGI [41]: > 100 µM | TGI [43]: > 100 µM | TGI [44]: > 100 µM | TGI [45]: > 100 µM | TGI [57]: > 100 µM | TGI [46]: > 100 µM | TGI [47]: > 100 µM | TGI [48]: > 100 µM | TGI [49]: > 100 µM | TGI [50]: > 100 µM | TGI [52]: > 100 µM | TGI [53]: > 100 µM

CN(C)C(=S)C(Cl)(c1ccccc1)c1ccccc1
TGI [1]: > 100 µM | TGI [2]: > 100 µM | TGI [3]: > 100 µM | TGI [4]: > 100 µM | TGI [5]: > 100 µM | TGI [6]: > 100 µM | TGI [54]: > 100 µM | TGI [7]: > 100 µM | TGI [8]: > 100 µM | TGI [9]: 75 µM | TGI [10]: > 100 µM | TGI [11]: > 100 µM | TGI [12]: > 100 µM | TGI [13]: 71.6 µM | TGI [14]: > 100 µM | TGI [58]: > 100 µM | TGI [55]: > 100 µM | TGI [15]: 77.3 µM | TGI [16]: > 100 µM | TGI [17]: > 100 µM | TGI [18]: > 100 µM | TGI [19]: > 100 µM | TGI [20]: > 100 µM | TGI [21]: > 100 µM | TGI [22]: > 100 µM | TGI [23]: > 100 µM | TGI [24]: > 100 µM | TGI [25]: > 100 µM | TGI [26]: > 100 µM | TGI [27]: > 100 µM | TGI [28]: > 100 µM | TGI [59]: > 100 µM | TGI [29]: > 100 µM | TGI [30]: > 100 µM | TGI [31]: > 100 µM | TGI [32]: > 100 µM | TGI [33]: > 100 µM | TGI [34]: > 100 µM | TGI [35]: > 100 µM | TGI [38]: > 100 µM | TGI [39]: > 100 µM | TGI [56]: > 100 µM | TGI [40]: 66.8 µM | TGI [41]: > 100 µM | TGI [42]: > 100 µM | TGI [43]: > 100 µM | TGI [44]: > 100 µM | TGI [45]: > 100 µM | TGI [57]: > 100 µM | TGI [47]: > 100 µM | TGI [48]: 61.7 µM | TGI [49]: > 100 µM | TGI [50]: > 100 µM | TGI [51]: > 100 µM | TGI [52]: > 100 µM | TGI [53]: > 100 µM
